Measurements taken from ChEMBL document CHEMBL5390204, “Persephacin Is a Broad-Spectrum Antifungal Aureobasidin Metabolite That Overcomes Intrinsic Resistance in Aspergillus fumigatus” (J Nat Prod, 2023).
≈ marks a conversion by molar mass, not a printed value. Numbered stars: 1 amine (or outer) side, 2 acyl side, 3 side chain; on linkers, the order of the positions; unused ones are H or OH. Square brackets hold non-standard residues; d marks the D form. Peptide text beside a SMILES is read from it. X1 = CC[C@@H](C)[C@@H](O[*:1])C(=O)[*:2]; NMeVal(β-OH) = CN[C@H](C(=O)O)C(C)(C)O; NMeF = CN[C@@H](Cc1ccccc1)C(=O)O; aIle = CC[C@@H](C)[C@H](N)C(=O)O; NMeV = CN[C@H](C(=O)O)C(C)C

Legend:
Candida parapsilosis [1] = experiment: Antifungal activity against Candida parapsilosis ATCC 22019 (Y-12969) assessed as reduction in fungal growth incubated for 48 hrs by microplate reader analysis; type: functional; details: Lodderomyces parapsilosis
Candida albicans [2] = experiment: Antifungal activity against Candida albicans ATCC 10231 assessed as reduction in fungal growth incubated for 48 hrs by microplate reader analysis; type: functional
Candida albicans [3] = experiment: Antifungal activity against Candida albicans SC5314 assessed as reduction in fungal growth incubated for 48 hrs by microplate reader analysis; type: functional
Pichia kudriavzevii [4] = experiment: Antifungal activity against Candida krusei ATCC 6258 (Y-7179) assessed as reduction in fungal growth incubated for 48 hrs by microplate reader analysis; type: functional
Candida tropicalis [5] = experiment: Antifungal activity against Candida tropicalis ATCC750 (Y-12699) assessed as reduction in fungal growth incubated for 48 hrs by microplate reader analysis; type: functional
Cryptococcus neoformans [6] = experiment: Antifungal activity against Cryptococcus neoformans H99 assessed as reduction in fungal growth incubated for 48 hrs by microplate reader analysis; type: functional
Aspergillus fumigatus [7] = experiment: Antifungal activity against Aspergillus fumigatus MYA 3627 assessed as reduction in fungal growth incubated for 48 hrs by microplate reader analysis; type: functional
Aspergillus fumigatus [8] = experiment: Antifungal activity against Aspergillus fumigatus NRRL6113 assessed as reduction in fungal growth incubated for 48 hrs by microplate reader analysis; type: functional
Aspergillus fumigatus [9] = experiment: Antifungal activity against Aspergillus fumigatus NRRL5109 assessed as reduction in fungal growth incubated for 48 hrs by microplate reader analysis; type: functional
Aspergillus flavus [10] = experiment: Antifungal activity against Aspergillus flavus NRRL485 assessed as reduction in fungal growth incubated for 48 hrs by microplate reader analysis; type: functional
Aspergillus niger [11] = experiment: Antifungal activity against Aspergillus niger FGSC A732 assessed as reduction in fungal growth incubated for 48 hrs by microplate reader analysis; type: functional
Aspergillus terreus [12] = experiment: Antifungal activity against Aspergillus terreus 191A6 assessed as reduction in fungal growth incubated for 48 hrs by microplate reader analysis; type: functional
Curvularia lunata [13] = experiment: Antifungal activity against Curvularia lunata NRRL6409 assessed as reduction in fungal growth incubated for 48 hrs by microplate reader analysis; type: functional
Rhizopus arrhizus [14] = experiment: Antifungal activity against Rhizopus oryzae FGSC 9543 assessed as reduction in fungal growth incubated for 48 hrs by microplate reader analysis; type: functional
Mucor circinelloides [15] = experiment: Antifungal activity against Mucor circinelloides 235C7 assessed as reduction in fungal growth incubated for 48 hrs by microplate reader analysis; type: functional
Fusarium solani [16] = experiment: Antifungal activity against Fusarium solani 243G2 assessed as reduction in fungal growth incubated for 48 hrs by microplate reader analysis; type: functional
Paecilomyces lilacinus [17] = experiment: Antifungal activity against Paecilomyces lilacinus 165E10 assessed as reduction in fungal growth incubated for 48 hrs by microplate reader analysis; type: functional; details: Purpureocillium lilacinum
Hamigera insecticola [18] = experiment: Antifungal activity against Hamigera insecticola NRRL35442 assessed as reduction in fungal growth incubated for 48 hrs by microplate reader analysis; type: functional
Candida albicans [19] = experiment: Antifungal activity against Candida albicans SC5314 assessed as reduction in fungal viability incubated for 48 hrs by microplate reader analysis; type: functional
Candida albicans [20] = experiment: Antifungal activity against Candida albicans ATCC 10231 assessed as reduction in fungal viability incubated for 48 hrs by microplate reader analysis; type: functional
Candida parapsilosis [21] = experiment: Antifungal activity against Candida parapsilosis ATCC 22019 (Y-12969) assessed as reduction in fungal viability incubated for 48 hrs by microplate reader analysis; type: functional
Candida tropicalis [22] = experiment: Antifungal activity against Candida tropicalis ATCC750 (Y-12699) assessed as reduction in fungal viability incubated for 48 hrs by microplate reader analysis; type: functional
Pichia kudriavzevii [23] = experiment: Antifungal activity against Candida krusei ATCC 6258 (Y-7179) assessed as reduction in fungal viability incubated for 48 hrs by microplate reader analysis; type: functional
Cryptococcus neoformans [24] = experiment: Antifungal activity against Cryptococcus neoformans H99 assessed as reduction in fungal viability incubated for 48 hrs by microplate reader analysis; type: functional
Aspergillus fumigatus [25] = experiment: Antifungal activity against Aspergillus fumigatus MYA 3627 assessed as reduction in fungal viability incubated for 48 hrs by microplate reader analysis; type: functional
Aspergillus fumigatus [26] = experiment: Antifungal activity against Aspergillus fumigatus NRRL6113 assessed as reduction in fungal viability incubated for 48 hrs by microplate reader analysis; type: functional
Aspergillus fumigatus [27] = experiment: Antifungal activity against Aspergillus fumigatus NRRL5109 assessed as reduction in fungal viability incubated for 48 hrs by microplate reader analysis; type: functional
Aspergillus flavus [28] = experiment: Antifungal activity against Aspergillus flavus NRRL485 assessed as reduction in fungal viability incubated for 48 hrs by microplate reader analysis; type: functional
Aspergillus niger [29] = experiment: Antifungal activity against Aspergillus niger FGSC A732 assessed as reduction in fungal viability incubated for 48 hrs by microplate reader analysis; type: functional
Aspergillus terreus [30] = experiment: Antifungal activity against Aspergillus terreus 191A6 assessed as reduction in fungal viability incubated for 48 hrs by microplate reader analysis; type: functional
Curvularia lunata [31] = experiment: Antifungal activity against Curvularia lunata NRRL6409 assessed as reduction in fungal viability incubated for 48 hrs by microplate reader analysis; type: functional
Rhizopus arrhizus [32] = experiment: Antifungal activity against Rhizopus oryzae FGSC 9543 assessed as reduction in fungal viability incubated for 48 hrs by microplate reader analysis; type: functional
Mucor circinelloides [33] = experiment: Antifungal activity against Mucor circinelloides 235C7 assessed as reduction in fungal viability incubated for 48 hrs by microplate reader analysis; type: functional
Fusarium solani [34] = experiment: Antifungal activity against Fusarium solani 243G2 assessed as reduction in fungal viability incubated for 48 hrs by microplate reader analysis; type: functional
Paecilomyces lilacinus [35] = experiment: Antifungal activity against Paecilomyces lilacinus 165E10 assessed as reduction in fungal viability incubated for 48 hrs by microplate reader analysis; type: functional, Purpureocillium lilacinum
Hamigera insecticola [36] = experiment: Antifungal activity against Hamigera insecticola NRRL35442 assessed as reduction in fungal viability incubated for 48 hrs by microplate reader analysis; type: functional

## CC[C@@H](C)[C@@H]1NC(=O)[C@@H]2CCCN2C(=O)[C@H](Cc2ccccc2)N(C)C(=O)[C@H](Cc2ccccc2)NC(=O)[C@H](C(C)C)N(C)C(=O)[C@@H]([C@H](C)CC)OC(=O)[C@H](C(C)(C)O)N(C)C(=O)[C@H](CC(C)C)NC(=O)[C@H](C(C)C)N(C)C1=O [AUREOBASIDIN A] (cyclo(F[NMeF]P[aIle][NMeV]L[NMeVal(β-OH)][X1][NMeV]))
Candida parapsilosis [1]
  MFC: 2.5 µM (≈ 2.75 µg/mL)
  MIC80: 1.3 µM (≈ 1.43 µg/mL)
Candida albicans [2]
  MFC: 2.5 µM (≈ 2.75 µg/mL)
  MIC80: 0.6 µM (≈ 0.661 µg/mL)
Candida albicans [3]
  MFC: 0.6 µM (≈ 0.661 µg/mL)
  MIC80: 0.3 µM (≈ 0.33 µg/mL)
Pichia kudriavzevii [4]
  MFC: 2.5 µM (≈ 2.75 µg/mL)
  MIC80: 1.3 µM (≈ 1.43 µg/mL)
Candida tropicalis [5]
  MFC: 0.6 µM (≈ 0.661 µg/mL)
  MIC80: 0.6 µM (≈ 0.661 µg/mL)
Cryptococcus neoformans [6]
  MFC: 2.5 µM (≈ 2.75 µg/mL)
  MIC80: 2.5 µM (≈ 2.75 µg/mL)
Aspergillus fumigatus [7]
  MFC: > 10 µM
  MIC80: > 10 µM
Aspergillus fumigatus [8]
  MFC: > 10 µM
  MIC80: > 10 µM
Aspergillus fumigatus [9]
  MFC: > 10 µM
  MIC80: > 10 µM
Aspergillus flavus [10]
  MFC: > 10 µM
  MIC80: > 10 µM
Aspergillus niger [11]
  MFC: > 10 µM
  MIC80: 5 µM (≈ 5.51 µg/mL)
Aspergillus terreus [12]
  MFC: > 10 µM
  MIC80: 2.5 µM (≈ 2.75 µg/mL)
Curvularia lunata [13]
  MFC: 1.3 µM (≈ 1.43 µg/mL)
  MIC80: 0.6 µM (≈ 0.661 µg/mL)
Rhizopus arrhizus [14]
  MFC: > 10 µM
  MIC80: > 10 µM
Mucor circinelloides [15]
  MFC: > 10 µM
  MIC80: > 10 µM
Fusarium solani [16]
  MFC: > 10 µM
  MIC80: 5 µM (≈ 5.51 µg/mL)
Paecilomyces lilacinus [17]
  MFC: > 10 µM
  MIC80: 5 µM (≈ 5.51 µg/mL)
Hamigera insecticola [18]
  MFC: > 10 µM
  MIC80: 0.6 µM (≈ 0.661 µg/mL)
Candida albicans [19]
  MFC<=99.9: 0.6 µM (≈ 0.661 µg/mL)
Candida albicans [20]
  MFC<=99.9: 2.5 µM (≈ 2.75 µg/mL)
Candida parapsilosis [21]
  MFC<=99.9: 2.5 µM (≈ 2.75 µg/mL)
Candida tropicalis [22]
  MFC<=99.9: 0.6 µM (≈ 0.661 µg/mL)
Pichia kudriavzevii [23]
  MFC<=99.9: 2.5 µM (≈ 2.75 µg/mL)
Cryptococcus neoformans [24]
  MFC<=99.9: 2.5 µM (≈ 2.75 µg/mL)
Aspergillus fumigatus [25]
  MFC<=99.9: >10 µM
Aspergillus fumigatus [26]
  MFC<=99.9: >10 µM
Aspergillus fumigatus [27]
  MFC<=99.9: >10 µM
Aspergillus flavus [28]
  MFC<=99.9: >10 µM
Aspergillus niger [29]
  MFC<=99.9: >10 µM
Aspergillus terreus [30]
  MFC<=99.9: >10 µM
Curvularia lunata [31]
  MFC<=99.9: 1.3 µM (≈ 1.43 µg/mL)
Rhizopus arrhizus [32]
  MFC<=99.9: >10 µM
Mucor circinelloides [33]
  MFC<=99.9: >10 µM
Fusarium solani [34]
  MFC<=99.9: >10 µM
Paecilomyces lilacinus [35]
  MFC<=99.9: >10 µM
Hamigera insecticola [36]
  MFC<=99.9: >10 µM

## CC[C@H](C)C[C@H](C)CCCCCCCCC(=O)N[C@H]1C[C@@H](O)[C@@H](NCCN)NC(=O)[C@@H]2[C@@H](O)CCN2C(=O)[C@H]([C@H](O)CCN)NC(=O)[C@H]([C@H](O)[C@@H](O)c2ccc(O)cc2)NC(=O)[C@@H]2C[C@@H](O)CN2C(=O)[C@H]([C@@H](C)O)NC1=O [CASPOFUNGIN]
Candida parapsilosis [1]
  MFC: 1.3 µM (≈ 1.42 µg/mL)
  MIC80: 0.3 µM (≈ 0.328 µg/mL)
Candida albicans [2]
  MFC: 5 µM (≈ 5.47 µg/mL)
  MIC80: 0.03 µM (≈ 0.0328 µg/mL)
Candida albicans [3]
  MFC: 0.63 µM (≈ 0.689 µg/mL)
  MIC80: 0.03 µM (≈ 0.0328 µg/mL)
Pichia kudriavzevii [4]
  MFC: 0.3 µM (≈ 0.328 µg/mL)
  MIC80: 0.2 µM (≈ 0.219 µg/mL)
Candida tropicalis [5]
  MFC: 0.2 µM (≈ 0.219 µg/mL)
  MIC80: 0.03 µM (≈ 0.0328 µg/mL)
Cryptococcus neoformans [6]
  MFC: > 10 µM
  MIC80: > 10 µM
Aspergillus fumigatus [7]
  MFC: > 10 µM
  MIC80: 0.1 µM (≈ 0.109 µg/mL)
Aspergillus fumigatus [8]
  MFC: > 10 µM
  MIC80: > 10 µM
Aspergillus fumigatus [9]
  MFC: > 10 µM
  MIC80: > 10 µM
Aspergillus flavus [10]
  MFC: > 10 µM
  MIC80: > 10 µM
Aspergillus niger [11]
  MFC: > 10 µM
  MIC80: 0.1 µM (≈ 0.109 µg/mL)
Aspergillus terreus [12]
  MFC: > 10 µM
  MIC80: 0.13 µM (≈ 0.142 µg/mL)
Curvularia lunata [13]
  MFC: 5 µM (≈ 5.47 µg/mL)
  MIC80: 5 µM (≈ 5.47 µg/mL)
Rhizopus arrhizus [14]
  MFC: > 10 µM
  MIC80: > 10 µM
Mucor circinelloides [15]
  MFC: > 10 µM
  MIC80: > 10 µM
Fusarium solani [16]
  MFC: > 10 µM
  MIC80: 0.2 µM (≈ 0.219 µg/mL)
Paecilomyces lilacinus [17]
  MFC: > 10 µM
  MIC80: > 10 µM
Hamigera insecticola [18]
  MFC: > 10 µM
  MIC80: 0.1 µM (≈ 0.109 µg/mL)
Candida albicans [19]
  MFC<=99.9: 0.63 µM (≈ 0.689 µg/mL)
Candida albicans [20]
  MFC<=99.9: 5 µM (≈ 5.47 µg/mL)
Candida parapsilosis [21]
  MFC<=99.9: 1.3 µM (≈ 1.42 µg/mL)
Candida tropicalis [22]
  MFC<=99.9: 0.2 µM (≈ 0.219 µg/mL)
Pichia kudriavzevii [23]
  MFC<=99.9: 0.3 µM (≈ 0.328 µg/mL)
Cryptococcus neoformans [24]
  MFC<=99.9: >10 µM
Aspergillus fumigatus [25]
  MFC<=99.9: >10 µM
Aspergillus fumigatus [26]
  MFC<=99.9: >10 µM
Aspergillus fumigatus [27]
  MFC<=99.9: >10 µM
Aspergillus flavus [28]
  MFC<=99.9: >10 µM
Aspergillus niger [29]
  MFC<=99.9: >10 µM
Aspergillus terreus [30]
  MFC<=99.9: >10 µM
Curvularia lunata [31]
  MFC<=99.9: 5 µM (≈ 5.47 µg/mL)
Rhizopus arrhizus [32]
  MFC<=99.9: >10 µM
Mucor circinelloides [33]
  MFC<=99.9: >10 µM
Fusarium solani [34]
  MFC<=99.9: >10 µM
Paecilomyces lilacinus [35]
  MFC<=99.9: >10 µM
Hamigera insecticola [36]
  MFC<=99.9: >10 µM
